Measured values as given in the supplement of paper PMC10307832.

Columns and labels:
Experiment in all cases: relative viability (nuclei count vs DMSO), 5 days (fraction); higher = more cells survive
[1] = compound: C1=CC=C(C(=C1)C2=CC=C(C=C2)C3=CSC4=C3C(=C(C(=O)N4)C#N)O)O + Cc1nc(NC(=O)N2CCC[C@H]2C(N)=O)sc1-c1ccnc(C(C)(C)C(F)(F)F)c1 [Alpelisib] (partner 2 µM)
Procedure, shortened: (§1)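 A single step with final 0.05% Triton X-100, 1% formaldehyde and 1 ug/ml Hoechst fixed the cells and stained nuclei 5 days after treatment. Lung cancer cell lines in 1536-well plates had been treated by pin tool the day after seeding with one drug alone or a fixed anchor-drug dose plus five library-drug doses (not always all listed) in √10 steps, and nuclei were counted on 4× images. Relative viability is the ratio of nuclei in treated wells to nuclei in vehicle wells, taken as the median of duplicate plates.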

[2] = compound: C1=CC=C(C(=C1)C2=CC=C(C=C2)C3=CSC4=C3C(=C(C(=O)N4)C#N)O)O + Cc1nc(Nc2ncc(C(=O)Nc3c(C)cccc3Cl)s2)cc(N2CCN(CCO)CC2)n1 [Dasatinib] (partner 0.075 µM)
Procedure, shortened: as §1

TGX 221 + OSI-027 = compound: CC1=CN2C(=O)C=C(N=C2C(=C1)C(C)NC3=CC=CC=C3)N4CCOCC4 [TGX 221] + COc1cccc2cc(-c3nc([C@H]4CC[C@H](C(=O)O)CC4)n4ncnc(N)c34)[nH]c12 [OSI-027] (partner 0.5 µM)
Procedure, shortened: as §1

TGX 221 + Pemetrexed = compound: CC1=CN2C(=O)C=C(N=C2C(=C1)C(C)NC3=CC=CC=C3)N4CCOCC4 [TGX 221] + Nc1nc2[nH]cc(CCc3ccc(C(=O)N[C@@H](CCC(=O)O)C(=O)O)cc3)c2c(=O)[nH]1 [Pemetrexed] (partner 0.2 µM)
Procedure, shortened: as §1

Row | Cell Line | relative viability ([1]; first compound 0.08 µM) | relative viability ([1]; first compound 0.253 µM) | relative viability ([1]; first compound 0.8 µM) | relative viability ([1]; first compound 2.53 µM) | relative viability ([1]; first compound 8 µM) | relative viability ([2]; first compound 0.08 µM) | relative viability ([2]; first compound 0.253 µM) | relative viability ([2]; first compound 0.8 µM) | relative viability ([2]; first compound 2.53 µM) | relative viability ([2]; first compound 8 µM) | relative viability (TGX 221 + OSI-027; first compound 0.08 µM) | relative viability (TGX 221 + OSI-027; first compound 0.253 µM) | relative viability (TGX 221 + OSI-027; first compound 0.8 µM) | relative viability (TGX 221 + OSI-027; first compound 2.53 µM) | relative viability (TGX 221 + OSI-027; first compound 8 µM) | relative viability (TGX 221 + Pemetrexed; first compound 0.08 µM) | relative viability (TGX 221 + Pemetrexed; first compound 0.253 µM) | relative viability (TGX 221 + Pemetrexed; first compound 0.8 µM) | relative viability (TGX 221 + Pemetrexed; first compound 2.53 µM) | relative viability (TGX 221 + Pemetrexed; first compound 8 µM)
1 | NCI-H1734 | 0.658 | 0.675 | 0.697 | 0.724 | 0.542 | 0.396 | 0.474 | 0.452 | 0.489 | 0.455 | 0.57 | 0.579 | 0.621 | 0.527 | 0.532 | 0.459 | 0.399 | 0.414 | 0.436 | 0.395
2 | NCI-H1755 | 0.861 | 0.957 | 0.941 | 1.03 | 0.883 | 0.396 | 0.466 | 0.349 | 0.368 | 0.423 | 0.685 | 0.728 | 0.605 | 0.657 | 0.697 | 0.461 | 0.344 | 0.38 | 0.361 | 0.39
3 | NCI-H1793 | 0.699 | 0.624 | 0.598 | 0.581 | 0.45 | 0.356 | 0.354 | 0.419 | 0.4 | 0.326 | 0.249 | 0.237 | 0.248 | 0.183 | 0.218 | 0.667 | 0.64 | 0.754 | 0.604 | 0.68
4 | NCI-H1915 | 1.11 | 1.07 | 1.07 | 1.08 | 0.991 | 0.335 | 0.344 | – | 0.314 | 0.34 | 0.575 | 0.601 | 0.63 | 0.472 | 0.619 | 0.459 | 0.437 | 0.526 | 0.452 | 0.516
5 | NCI-H1944 | 0.806 | 0.952 | 0.888 | 0.856 | 0.864 | 0.224 | 0.248 | 0.219 | 0.178 | 0.215 | 0.377 | 0.39 | 0.397 | 0.409 | 0.388 | – | 0.552 | 0.533 | 0.6 | 0.562
6 | NCI-H1975 | 0.508 | 0.694 | 0.542 | 0.721 | 0.485 | 0.327 | 0.369 | 0.345 | 0.333 | 0.37 | 0.694 | 0.676 | 0.653 | 0.528 | 0.555 | 0.306 | 0.26 | 0.293 | 0.297 | 0.273
7 | NCI-H1993 | 0.684 | 0.624 | 0.69 | 0.594 | 0.655 | 0.619 | 0.701 | 0.596 | 0.544 | 0.549 | 0.504 | 0.575 | 0.579 | 0.559 | 0.533 | 0.567 | 0.545 | 0.632 | 0.604 | 0.246
8 | NCI-H2009 | 1.11 | 1.09 | 1.14 | 1.11 | 1.09 | 0.322 | 0.267 | 0.322 | 0.302 | 0.29 | 0.543 | 0.583 | 0.574 | 0.569 | 0.49 | 0.943 | 1.06 | 1.08 | 1.1 | 0.938
9 | NCI-H2023 | 0.517 | 0.591 | 0.644 | 0.607 | 0.585 | 0.444 | 0.521 | 0.648 | 0.55 | 0.433 | 0.324 | 0.328 | 0.441 | 0.322 | 0.275 | 0.263 | 0.205 | 0.223 | 0.214 | 0.189
10 | NCI-H2085 | 0.872 | 1.08 | 1 | 0.973 | 0.879 | 0.22 | 0.264 | 0.238 | 0.224 | 0.258 | 0.714 | 0.645 | 0.659 | 0.323 | 0.462 | 0.932 | 0.759 | 0.615 | 0.523 | 0.422
11 | NCI-H2087 | 1.07 | 1.27 | 1.16 | 1.11 | 1.13 | 0.67 | 0.878 | 0.969 | 0.925 | 0.703 | 0.579 | 0.481 | 0.574 | 0.465 | 0.622 | 0.745 | 0.637 | 0.582 | 0.663 | 0.672
12 | NCI-H2126 | 0.784 | 0.809 | 0.748 | 0.77 | 0.731 | 0.588 | 0.573 | 0.604 | 0.45 | 0.568 | 0.703 | 0.733 | 0.619 | 0.539 | 0.702 | 0.693 | 0.574 | 0.673 | 0.615 | 0.656
13 | NCI-H2170 | 0.797 | 0.79 | 0.884 | 0.786 | 0.685 | 0.486 | 0.514 | 0.662 | 0.635 | 0.691 | 0.717 | 0.737 | 0.681 | 0.66 | 0.712 | 0.263 | 0.252 | 0.213 | 0.271 | 0.268
14 | NCI-H2228 | 0.585 | 0.927 | 0.712 | 0.803 | 0.816 | 0.511 | 0.476 | 0.567 | 0.606 | 0.475 | 0.654 | 0.522 | 0.638 | 0.453 | 0.463 | 0.357 | 0.369 | 0.356 | 0.313 | 0.332
15 | NCI-H2347 | 0.959 | 1.09 | 0.968 | 1.04 | 0.964 | 0.331 | 0.276 | 0.28 | 0.284 | 0.314 | 0.463 | 0.321 | 0.376 | 0.29 | 0.296 | 0.467 | 0.414 | 0.445 | 0.386 | 0.389
16 | NCI-H2405 | 0.761 | 0.834 | 0.867 | 0.715 | 0.715 | 0.206 | 0.206 | 0.214 | 0.201 | 0.201 | 0.609 | 0.627 | 0.664 | 0.658 | 0.589 | 1.01 | 1.05 | 1.07 | 0.952 | 0.885
